Values quoted from earlier work in patent US20080293652A1, “Combination of Ad-P53 and Chemotherapy for the Treatment of Tumours” (priority 2004, published 2008).
Numbered stars: 1 amine (or outer) side, 2 acyl side, 3 side chain; on linkers, the order of the positions; unused ones are H or OH. Bridge positions count the residues as written; N and C are the ends. Square brackets hold non-standard residues; d marks the D form. Peptide text beside a SMILES is read from it. I, II: the chains in the order shown. Actinocin(9to1) = Cc1c2oc3c(C)ccc(C(=O)[*:1])c3nc-2c(C(=O)[*:2])c(N)c1=O; NMeV = CN[C@H](C(=O)O)C(C)C; Sar = CNCC(=O)O

Columns and labels:
[1] = for part of the dose excreted / detected intact in the urine: in vivo
[2] = system: multiple myeloma; conditions: oral administration

SMILES: Cc1c2oc3c(C)ccc(C(=O)N[C@@H]4C(=O)N[C@H](C(C)C)C(=O)N5CCC[C@H]5C(=O)N(C)CC(=O)N(C)[C@@H](C(C)C)C(=O)O[C@@H]4C)c3nc-2c(C(=O)N[C@@H]2C(=O)N[C@H](C(C)C)C(=O)N3CCC[C@H]3C(=O)N(C)CC(=O)N(C)[C@@H](C(C)C)C(=O)O[C@@H]2C)c(N)c1=O [Actinomycin D] (I: T[dV]P[Sar][NMeV] / II: T[dV]P[Sar][NMeV]; ester I:1-I:C, II:1-II:C; linker I:N-II:N via Actinocin(9to1))
- part of the dose excreted / detected intact in the urine [1]: 10%

SMILES: CC[C@]1(O)C[C@@H]2CN(CCc3c([nH]c4ccccc34)[C@@](C(=O)OC)(c3cc4c(cc3OC)N(C)[C@H]3[C@@](O)(C(=O)OC)[C@H](OC(C)=O)[C@]5(CC)C=CCN6CC[C@]43[C@@H]65)C2)C1 [Vinblastine]
- part of the dose excreted / detected intact in the urine [1]: Approximately 15%

SMILES: N[C@@H](Cc1ccc(N(CCCl)CCCl)cc1)C(=O)O [Melphalan, 4-[bis(2-chloroethyl)amino]-L-phenylalanine]
- part of patients showing a favorable response [2]: one third to one half

SMILES: CC[C@]1(O)C[C@H]2CN(CCc3c([nH]c4ccccc34)[C@@](C(=O)OC)(c3cc4c(cc3OC)N(C=O)[C@H]3[C@@](O)(C(=O)OC)[C@H](OC(C)=O)[C@]5(CC)C=CCN6CC[C@]43[C@@H]65)C2)C1 [Vincristine]
- terminal half-life (clearance from plasma) ([1]; multiphasic clearance): about 24 hours
